Test results reported in ChEMBL document CHEMBL3885881, “DrugMatrix”.

Species: Rattus norvegicus
Assay: DrugMatrix - Regimen: Daily Repeat
Type: toxicity, organism-based, Sprague-Dawley
Design: regimen Daily Repeat, gender Male, age 6-8 weeks
Conditions: in vivo, po, route oral GAVAGE, vehicle .5 % CMC; for ABSOLUTE BASOPHIL / ABSOLUTE EOSINOPHIL / ABSOLUTE LYMPHOCYTE / ABSOLUTE MONOCYTE / ABSOLUTE SEGMENTED NEUTROPHIL / BASOPHIL / EOSINOPHIL / ERYTHROCYTE COUNT / HEMATOCRIT / HEMOGLOBIN / LEUKOCYTE COUNT / LYMPHOCYTE / MEAN CORPUSCULAR HEMOGLOBIN / MEAN CORPUSCULAR HEMOGLOBIN CONCENTRATION / MEAN CORPUSCULAR VOLUME / MONOCYTE / NEUTROPHIL / NUCLEATED RED BLOOD CELLS / PLATELET COUNT: tissue Blood; for ALANINE AMINOTRANSFERASE / ALBUMIN / ALKALINE PHOSPHATASE / ASPARTATE AMINOTRANSFERASE / BLOOD UREA NITROGEN / CARBON DIOXIDE / CHLORIDE / CHOLESTEROL / CREATINE PHOSPHOKINASE / CREATININE / GLUCOSE / LACTATE DEHYDROGENASE / LIPASE / PHOSPHORUS / POTASSIUM / SODIUM / TOTAL BILIRUBIN / TOTAL PROTEIN / URIC ACID: tissue Plasma
[1] = 20 mg/kg, 120 h, dose level Low, time 5 day
[2] = 1500 mg/kg, 72 h, dose level High, time 3 day
[3] = 1500 mg/kg, 120 h, dose level High, time 5 day

CC(C)(C)NC(=O)[C@@H]1C[C@@H]2CCCC[C@@H]2CN1C[C@@H](O)[C@H](Cc1ccccc1)NC(=O)[C@H](CC(N)=O)NC(=O)c1ccc2ccccc2n1
ABSOLUTE BASOPHIL [1]: 0 CELLS/uL
ABSOLUTE EOSINOPHIL [1]: 247 CELLS/uL
ABSOLUTE LYMPHOCYTE [1]: 11820.33 CELLS/uL
ABSOLUTE MONOCYTE [1]: 0 CELLS/uL
ABSOLUTE SEGMENTED NEUTROPHIL [1]: 1032.67 CELLS/uL
BASOPHIL [1]: 0%
EOSINOPHIL [1]: 2%
ERYTHROCYTE COUNT [1]: 5.22 x10E6/uL
HEMATOCRIT [1]: 32.83%
HEMOGLOBIN [1]: 12.53 G/DL
LEUKOCYTE COUNT [1]: 13.1 x10E3/uL
LYMPHOCYTE [1]: 90.33%
MEAN CORPUSCULAR HEMOGLOBIN [1]: 24.03 pg
MEAN CORPUSCULAR HEMOGLOBIN CONCENTRATION [1]: 38.2 G/DL
MEAN CORPUSCULAR VOLUME [1]: 63.03 fL
MONOCYTE [1]: 0%
NEUTROPHIL [1]: 7.67%
NUCLEATED RED BLOOD CELLS [1]: 0 /100WBC
PLATELET COUNT [1]: 1193.67 x10E3/uL
ALANINE AMINOTRANSFERASE [1]: 53.33 u/L
ALBUMIN [1]: 4.33 G/DL
ALKALINE PHOSPHATASE [1]: 341.67 u/L
ASPARTATE AMINOTRANSFERASE [1]: 80.67 u/L
BLOOD UREA NITROGEN [1]: 18 mg/dL
CARBON DIOXIDE [1]: 25.33 mmol/L
CHLORIDE [1]: 102.67 MEQ/L
CHOLESTEROL [1]: 79.33 mg/dL
CREATINE PHOSPHOKINASE [1]: 166.33 u/L
CREATININE [1]: 0.19 mg/dL
GLUCOSE [1]: 146.67 mg/dL
LACTATE DEHYDROGENASE [1]: 98.33 u/L
LIPASE [1]: 8.67 u/L
PHOSPHORUS [1]: 11.57 mg/dL
POTASSIUM [1]: 5.98 MEQ/L
SODIUM [1]: 144.17 MEQ/L
TOTAL BILIRUBIN [1]: 0.17 mg/dL
TOTAL PROTEIN [1]: 6.37 G/DL
URIC ACID [1]: 1.27 mg/dL
ABSOLUTE BASOPHIL [2]: 0 CELLS/uL
ABSOLUTE EOSINOPHIL [2]: 137.33 CELLS/uL
ABSOLUTE LYMPHOCYTE [2]: 12869.33 CELLS/uL
ABSOLUTE MONOCYTE [2]: 0 CELLS/uL
ABSOLUTE SEGMENTED NEUTROPHIL [2]: 1126.67 CELLS/uL
BASOPHIL [2]: 0%
EOSINOPHIL [2]: 1%
ERYTHROCYTE COUNT [2]: 6.18 x10E6/uL
HEMATOCRIT [2]: 38.67%
HEMOGLOBIN [2]: 14.47 G/DL
LEUKOCYTE COUNT [2]: 14.13 x10E3/uL
LYMPHOCYTE [2]: 91%
MEAN CORPUSCULAR HEMOGLOBIN [2]: 23.47 pg
MEAN CORPUSCULAR HEMOGLOBIN CONCENTRATION [2]: 37.4 G/DL
MEAN CORPUSCULAR VOLUME [2]: 62.63 fL
MONOCYTE [2]: 0%
NEUTROPHIL [2]: 8%
NUCLEATED RED BLOOD CELLS [2]: 0 /100WBC
PLATELET COUNT [2]: 1247.33 x10E3/uL
ALANINE AMINOTRANSFERASE [2]: 48.67 u/L
ALBUMIN [2]: 4.4 G/DL
ALKALINE PHOSPHATASE [2]: 408 u/L
ASPARTATE AMINOTRANSFERASE [2]: 76.67 u/L
BLOOD UREA NITROGEN [2]: 14 mg/dL
CARBON DIOXIDE [2]: 26.67 mmol/L
CHLORIDE [2]: 99.67 MEQ/L
CHOLESTEROL [2]: 80 mg/dL
CREATINE PHOSPHOKINASE [2]: 218.33 u/L
CREATININE [2]: 0.15 mg/dL
GLUCOSE [2]: 162 mg/dL
LACTATE DEHYDROGENASE [2]: 94.33 u/L
LIPASE [2]: 8.67 u/L
PHOSPHORUS [2]: 12.5 mg/dL
POTASSIUM [2]: 6.95 MEQ/L
SODIUM [2]: 144.6 MEQ/L
TOTAL BILIRUBIN [2]: 0.17 mg/dL
TOTAL PROTEIN [2]: 6.17 G/DL
URIC ACID [2]: 1.83 mg/dL
ABSOLUTE BASOPHIL [3]: 0 CELLS/uL
ABSOLUTE EOSINOPHIL [3]: 190 CELLS/uL
ABSOLUTE LYMPHOCYTE [3]: 12822 CELLS/uL
ABSOLUTE MONOCYTE [3]: 0 CELLS/uL
ABSOLUTE SEGMENTED NEUTROPHIL [3]: 1388 CELLS/uL
BASOPHIL [3]: 0%
EOSINOPHIL [3]: 1.33%
ERYTHROCYTE COUNT [3]: 5.33 x10E6/uL
HEMATOCRIT [3]: 33.83%
HEMOGLOBIN [3]: 13.1 G/DL
LEUKOCYTE COUNT [3]: 14.4 x10E3/uL
LYMPHOCYTE [3]: 89.33%
MEAN CORPUSCULAR HEMOGLOBIN [3]: 24.63 pg
MEAN CORPUSCULAR HEMOGLOBIN CONCENTRATION [3]: 38.73 G/DL
MEAN CORPUSCULAR VOLUME [3]: 63.53 fL
MONOCYTE [3]: 0%
NEUTROPHIL [3]: 9.33%
NUCLEATED RED BLOOD CELLS [3]: 0 /100WBC
PLATELET COUNT [3]: 1411.67 x10E3/uL
ALANINE AMINOTRANSFERASE [3]: 48 u/L
ALBUMIN [3]: 4.4 G/DL
ALKALINE PHOSPHATASE [3]: 396.33 u/L
ASPARTATE AMINOTRANSFERASE [3]: 69 u/L
BLOOD UREA NITROGEN [3]: 15.67 mg/dL
CARBON DIOXIDE [3]: 25.67 mmol/L
CHLORIDE [3]: 103.33 MEQ/L
CHOLESTEROL [3]: 71.67 mg/dL
CREATINE PHOSPHOKINASE [3]: 233.33 u/L
CREATININE [3]: 0.17 mg/dL
GLUCOSE [3]: 169 mg/dL
LACTATE DEHYDROGENASE [3]: 123.33 u/L
LIPASE [3]: 8.33 u/L
PHOSPHORUS [3]: 12.8 mg/dL
POTASSIUM [3]: 6.57 MEQ/L
SODIUM [3]: 145.83 MEQ/L
TOTAL BILIRUBIN [3]: 0.23 mg/dL
TOTAL PROTEIN [3]: 6.23 G/DL
URIC ACID [3]: 1.7 mg/dL
